Measured values from the supplement of paper PMC10307832.

Legend:
Test in all cases: relative viability (nuclei count vs DMSO), 5 days (fraction); higher = more cells survive
[1] = compound: CS(=O)(=O)c1ccc(C(=O)Nc2ccc(Cl)c(-c3ccccn3)c2)c(Cl)c1 [Vismodegib] + CC1(C)CCC(c2ccc(Cl)cc2)=C(CN2CCN(c3ccc(C(=O)NS(=O)(=O)c4ccc(N[C@H](CCN5CCOCC5)CSc5ccccc5)c(S(=O)(=O)C(F)(F)F)c4)cc3)CC2)C1 [Navitoclax] (partner 0.5 µM)
In short: (§1)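 Values are medians from duplicate plates. Each reflects relative viability, defined as the nuclei count of treated wells over that of vehicle wells. Lung cancer cell lines in 1536-well plates were pin-tool dosed one day after seeding with one drug alone or with a fixed anchor-drug dose plus five library-drug doses (not always all listed) in √10 steps, then fixed, stained and imaged at 4× after 5 days.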

[2] = compound: N#CC[C@H](C1CCCC1)n1cc(-c2ncnc3[nH]ccc23)cn1 [Ruxolitinib] + Nc1nc2[nH]cc(CCc3ccc(C(=O)N[C@@H](CCC(=O)O)C(=O)O)cc3)c2c(=O)[nH]1 [Pemetrexed] (partner 0.2 µM)
In short: as §1

[3] = compound: N#CC[C@H](C1CCCC1)n1cc(-c2ncnc3[nH]ccc23)cn1 [Ruxolitinib] + Nc1ncn([C@H]2C[C@H](O)[C@@H](CO)O2)c(=O)n1 [Decitabine] (partner 2 µM)
In short: as §1

[4] = compound: N#CC[C@H](C1CCCC1)n1cc(-c2ncnc3[nH]ccc23)cn1 [Ruxolitinib] + C[C@]1(O)C[C@@H](c2nc(-c3ccc4ccc(-c5ccccc5)nc4c3)c3c(N)nccn32)C1 [Linsitinib] (partner 1 µM)
In short: as §1

## UMC-11
[1]; first compound 0.08 µM
  relative viability: 0.321
[1]; first compound 0.253 µM
  relative viability: 0.313
[1]; first compound 0.8 µM
  relative viability: 0.296
[1]; first compound 2.53 µM
  relative viability: 0.29
[1]; first compound 8 µM
  relative viability: 0.305
[2]; first compound 0.08 µM
  relative viability: 0.795
[2]; first compound 0.253 µM
  relative viability: 0.777
[2]; first compound 0.8 µM
  relative viability: 0.757
[2]; first compound 2.53 µM
  relative viability: 0.924
[2]; first compound 8 µM
  relative viability: 0.786
[3]; first compound 0.08 µM
  relative viability: 0.745
[3]; first compound 0.253 µM
  relative viability: 0.62
[3]; first compound 0.8 µM
  relative viability: 0.797
[3]; first compound 2.53 µM
  relative viability: 0.433
[3]; first compound 8 µM
  relative viability: 0.627
[4]; first compound 0.08 µM
  relative viability: 1.03
[4]; first compound 0.253 µM
  relative viability: 1.08
[4]; first compound 0.8 µM
  relative viability: 1.08
[4]; first compound 2.53 µM
  relative viability: 1.11
[4]; first compound 8 µM
  relative viability: 0.96
